For the test, the system named is sialylation of core 1 O-linked glycans of plasma glycoproteins (T/ST ratio). Briefly: Plasma T/ST ratio (T-antigen to monosialylated ST-antigen) by LC-MS/MS in treated GNE myopathy patients. Type of test: in vivo, human. The method, then:
The quantification of the T/ST ratio was carried out using the O-glycan quantification methods disclosed in Liu et al. Mol Genet Metab 106, 442-454 (2012). Briefly, O-linked glycans from human serum or plasma total glycoproteins were released by sodium hydroxide with sodium borohydrate and desalted by ion-exchange column and then permethylated before the quantity of T-antigen and monosialyl ST-antigen was measured using LC-MS/MS method. Plasma samples from 40 normal controls were used to establish the normal range for the T/ST ratio at <0.056. A cut-off of 0.06 was used to diagnose hyposialylation of O-linked protein glycosylation in human plasma or serum.
O-glycans were released from plasma glycoproteins and prepared for analysis essentially as described by Carlson (J Biol Chem 243: 616-626, 1968; Liu et al. Mol Genet Metab 106, 442-454 (2012)), with modifications as described. An internal standard (1250 pmol raffinose in 5 μL) was added to 10 μL of plasma and 65 μl water for a final volume of 100 μL. Next, 100 μL of freshly prepared 2M […] in 0.1M sodium hydroxide was added to denature the serum proteins and release the O-glycans; the mixture was incubated at 45° C. for 16 hours to ensure complete reaction. The reaction was neutralized by drop wise addition of 1.6 mL of a 0.25M acetic acid-methanol solution, and the O-glycans were extracted in methanol. […]

The source of these data is patent publication US9341619B2, “Hyposialylation disorders” (THE UNITED STATES OF AMERICA, as representated by the …, priority 2013, dated 2016).

Turning to `CC(=O)N[C@@H]1C(O)C[C@](O)(C(=O)O)OC1[C@H](O)[C@H](O)CO` (stereo in doubt) [sialic acid, N-acetylneuraminic acid], the “T/ST ratio after sialic acid treatment” value (one GNE myopathy patient (NH00016), sialic acid received one month before the test, cut-off 0.06) worked out at 0.05.
On to `CC(=O)N[C@H]1[C@@H](O)[C@H](O)[C@@H](CO)O[C@H]1O` [ManNAc, N-acetyl-D-mannosamine], for which the “T/ST ratio range under ManNAc” value (one GNE myopathy patient (SIA79) self-administering off-label ManNAc, abnormal range 0.06 or higher) is “normal range”.
